Data: patent US8952024B2, “Herbicidal pyrimidone derivatives” (E I du Pont de Nemours and Company, priority 2009, dated 2015)

Key:
Experiment in all cases: Test B pre-/postemergence plant response
Format in all cases: in vivo
[1] = test system: large crabgrass (Digitaria sanguinalis)
From the text: (§1) Seeds of plant species selected from blackgrass (Alopecurus myosuroides), downy bromegrass (Bromus tectorum), green foxtail (Setaria viridis), Italian ryegrass (Lolium multiflorum), wheat (Triticum aestivum), wild oat (Avena fatua), deadnettle (henbit deadnettle, Lamium amplexicaule), galium (catchweed bedstraw, Galium aparine), bermudagrass (Cynodon dactylon), Surinam grass (Brachiaria decumbens), cocklebur (Xanthium strumarium), corn (Zea mays), large crabgrass (Digitaria sanguinalis), woolly cupgrass (Eriochloa villosa), giant foxtail (Setaria faberii), goosegrass (Eleusine indica), johnsongrass (Sorghum halepense), kochia (Kochia scoparia), lambsquarters (Chenopodium album), morningglory (Ipomoea coccinea), nightshade (eastern black nightshade, Solanum ptycanthum), yellow nutsedge (Cyperus esculentus), pigweed (Amaranthus retroflexus), ragweed (common ragweed, Ambrosia elatior), Russian thistle (Salsola kali), soybean (Glycine max), sunflower (common oilseed sunflower, Helianthus annuus) and velvetleaf (Abutilon theophrasti) were planted into a blend of loam soil and sand and treated preemergence with test compounds formulated in a non-phytotoxic solvent mixture which included a surfactant.
(§2) At the same time, plants selected from these crop and weed species and also winter barley (Hordeum vulgare), canarygrass (Phalaris minor), chickweed (Stellaria media) and windgrass (Apera spica-venti) were planted in pots containing Redi-Earth® planting medium (Scotts Company, 14111 Scottslawn Road, Marysville, Ohio 43041) comprising spaghnum peat moss, vermiculite, wetting agent and starter nutrients and treated with postemergence applications of some of the test chemicals formulated in the same manner. Plants ranged in height from 2 to 18 cm (1- to 4-leaf stage) for postemergence treatments.
(§3) Treated plants and controls were maintained in a greenhouse for 13 to 15 days, after which time all treated plants were visually evaluated and compared to controls. Plant response ratings, summarized in Table B, are based on a scale of 0 to 100 where 0 is no effect and 100 is complete control. A dash (-) response means no test result.

[2] = test system: ragweed (common ragweed, Ambrosia elatior)
From the text: as §1, §2, §3

[3] = test system: yellow nutsedge (Cyperus esculentus)
From the text: as §1, §2, §3

kochia (Kochia scoparia) = test system: kochia (Kochia scoparia)
From the text: as §1, §2, §3

soybean (Glycine max) = test system: soybean (Glycine max)
From the text: as §1, §2, §3

[4] = test system: green foxtail (Setaria viridis)
From the text: as §1, §2, §3

[5] = test system: blackgrass (Alopecurus myosuroides)
From the text: as §1, §2, §3

[6] = test system: cocklebur (Xanthium strumarium)
From the text: as §1, §2, §3

[7] = test system: pigweed (Amaranthus retroflexus)
From the text: as §1, §2, §3

[8] = test system: velvetleaf (Abutilon theophrasti)
From the text: as §1, §2, §3

[9] = test system: Surinam grass (Brachiaria decumbens)
From the text: as §1, §2, §3

[10] = test system: downy bromegrass (Bromus tectorum)
From the text: as §1, §2, §3

wild oat (Avena fatua) = test system: wild oat (Avena fatua)
From the text: as §1, §2, §3

[11] = test system: Italian ryegrass (Lolium multiflorum)
From the text: as §1, §2, §3

[12] = test system: bermudagrass (Cynodon dactylon)
From the text: as §1, §2, §3

corn (Zea mays) = test system: corn (Zea mays)
From the text: as §1, §2, §3

[13] = test system: lambsquarters (Chenopodium album)
From the text: as §1, §2, §3

[14] = 250 g ai/ha, Preemergence, 0 to 100 scale
[15] = Postemergence, 31 g ai/ha, scale 0 to 100 (0 no effect, 100 complete control)
[16] = Postemergence, 62 g ai/ha, scale 0 (no effect) to 100 (complete control), 13 to 15 days
[17] = Postemergence, 125 g ai/ha, visual rating after 13 to 15 days, scale 0 (no effect) to 100 (complete control)
[18] = Postemergence, 250 g ai/ha, scale 0 to 100
[19] = Preemergence, 31 g ai/ha, scale 0 to 100 (0 no effect, 100 complete control)
[20] = Preemergence, 62 g ai/ha, scale 0 to 100, 0 no effect, 100 complete control
[21] = Preemergence, 125 g ai/ha, 0 to 100 scale

Compound: O=C1CCCC(O)=C1C(=O)c1cnc(-c2ccccc2)n(-c2ccc(F)cc2)c1=O [Compound 24]
- Plant response rating, Crabgrass, Large [1, 14]: 100
- Plant response rating, Crabgrass, Large [1, 15]: 70
- Plant response rating, Crabgrass, Large [1, 16]: 75
- Plant response rating, Crabgrass, Large [1, 17]: 95
- Crabgrass, Large plant response rating [1, 18]: 100
- Plant response rating, Crabgrass, Large [1, 19]: 90
- Plant response rating, Crabgrass, Large [1, 20]: 98
- Crabgrass, Large plant response rating [1, 21]: 100
- Plant response rating, Ragweed [2, 14]: 100
- Plant response rating, Ragweed [2, 15]: 70
- Plant response rating, Ragweed [2, 16]: 80
- Plant response rating, Ragweed [2, 17]: 90
- Ragweed plant response rating [2, 18]: 98
- Plant response rating, Ragweed [2, 19]: 85
- Plant response rating, Ragweed [2, 20]: 90
- Ragweed plant response rating [2, 21]: 98
- Plant response rating, Nutsedge, Yellow [3, 14]: 90
- Plant response rating, Nutsedge, Yellow [3, 15]: 20
- Plant response rating, Nutsedge, Yellow [3, 16]: 30
- Plant response rating, Nutsedge, Yellow [3, 17]: 30
- Nutsedge, Yellow plant response rating [3, 18]: 70
- Plant response rating, Nutsedge, Yellow [3, 19]: 30
- Plant response rating, Nutsedge, Yellow [3, 20]: 50
- Nutsedge, Yellow plant response rating [3, 21]: 85
- Plant response rating, Kochia (kochia (Kochia scoparia); [14]): 100
- Plant response rating, Kochia (kochia (Kochia scoparia); [15]): 70
- Plant response rating, Kochia (kochia (Kochia scoparia); [16]): 70
- Plant response rating, Kochia (kochia (Kochia scoparia); [17]): 80
- Kochia plant response rating (kochia (Kochia scoparia); [18]): 100
- Plant response rating, Kochia (kochia (Kochia scoparia); [19]): 100
- Plant response rating, Kochia (kochia (Kochia scoparia); [20]): 100
- Kochia plant response rating (kochia (Kochia scoparia); [21]): 100
- Plant response rating, Soybean (soybean (Glycine max); [14]): 85
- Plant response rating, Soybean (soybean (Glycine max); [15]): 85
- Plant response rating, Soybean (soybean (Glycine max); [16]): 95
- Plant response rating, Soybean (soybean (Glycine max); [17]): 95
- Soybean plant response rating (soybean (Glycine max); [18]): 100
- Plant response rating, Soybean (soybean (Glycine max); [19]): 45
- Plant response rating, Soybean (soybean (Glycine max); [20]): 60
- Soybean plant response rating (soybean (Glycine max); [21]): 80
- Plant response rating, Foxtail, Green [4, 14]: 100
- Plant response rating, Foxtail, Green [4, 15]: 40
- Plant response rating, Foxtail, Green [4, 16]: 40
- Plant response rating, Foxtail, Green [4, 17]: 90
- Foxtail, Green plant response rating [4, 18]: 95
- Plant response rating, Foxtail, Green [4, 19]: 0
- Plant response rating, Foxtail, Green [4, 20]: 40
- Foxtail, Green plant response rating [4, 21]: 100
- Plant response rating, Blackgrass [5, 14]: 10
- Plant response rating, Blackgrass [5, 15]: 5
- Plant response rating, Blackgrass [5, 16]: 10
- Plant response rating, Blackgrass [5, 17]: 40
- Blackgrass plant response rating [5, 18]: 50
- Plant response rating, Blackgrass [5, 19]: 0
- Plant response rating, Blackgrass [5, 20]: 0
- Blackgrass plant response rating [5, 21]: 0
- Plant response rating, Cocklebur [6, 14]: 95
- Plant response rating, Cocklebur [6, 15]: 90
- Plant response rating, Cocklebur [6, 16]: 98
- Plant response rating, Cocklebur [6, 17]: 98
- Cocklebur plant response rating [6, 18]: 100
- Plant response rating, Cocklebur [6, 19]: 10
- Cocklebur plant response rating [6, 21]: 95
- Plant response rating, Pigweed [7, 14]: 100
- Plant response rating, Pigweed [7, 15]: 70
- Plant response rating, Pigweed [7, 16]: 80
- Plant response rating, Pigweed [7, 17]: 80
- Pigweed plant response rating [7, 18]: 80
- Plant response rating, Pigweed [7, 19]: 98
- Plant response rating, Pigweed [7, 20]: 100
- Pigweed plant response rating [7, 21]: 100
- Plant response rating, Velvetleaf [8, 14]: 100
- Plant response rating, Velvetleaf [8, 15]: 75
- Plant response rating, Velvetleaf [8, 16]: 90
- Plant response rating, Velvetleaf [8, 17]: 98
- Velvetleaf plant response rating [8, 18]: 98
- Plant response rating, Velvetleaf [8, 19]: 98
- Plant response rating, Velvetleaf [8, 20]: 100
- Velvetleaf plant response rating [8, 21]: 100
- Plant response rating, Surinam Grass [9, 14]: 100
- Plant response rating, Surinam Grass [9, 15]: 50
- Plant response rating, Surinam Grass [9, 16]: 55
- Plant response rating, Surinam Grass [9, 17]: 60
- Surinam Grass plant response rating [9, 18]: 80
- Plant response rating, Surinam Grass [9, 19]: 65
- Plant response rating, Surinam Grass [9, 20]: 75
- Surinam Grass plant response rating [9, 21]: 95
- Plant response rating, Bromegrass, Downy [10, 14]: 20
- Plant response rating, Bromegrass, Downy [10, 15]: 25
- Plant response rating, Bromegrass, Downy [10, 16]: 50
- Plant response rating, Bromegrass, Downy [10, 17]: 70
- Bromegrass, Downy plant response rating [10, 18]: 75
- Plant response rating, Bromegrass, Downy [10, 19]: 0
- Plant response rating, Bromegrass, Downy [10, 20]: 0
- Bromegrass, Downy plant response rating [10, 21]: 0
- Plant response rating, Oat, Wild (wild oat (Avena fatua); [14]): 80
- Plant response rating, Oat, Wild (wild oat (Avena fatua); [15]): 40
- Plant response rating, Oat, Wild (wild oat (Avena fatua); [16]): 50
- Plant response rating, Oat, Wild (wild oat (Avena fatua); [17]): 60
- Oat, Wild plant response rating (wild oat (Avena fatua); [18]): 80
- Plant response rating, Oat, Wild (wild oat (Avena fatua); [19]): 0
- Plant response rating, Oat, Wild (wild oat (Avena fatua); [20]): 0
- Oat, Wild plant response rating (wild oat (Avena fatua); [21]): 0
- Plant response rating, Ryegrass, Italian [11, 14]: 10
- Plant response rating, Ryegrass, Italian [11, 15]: 0
- Plant response rating, Ryegrass, Italian [11, 16]: 5
- Plant response rating, Ryegrass, Italian [11, 17]: 40
- Ryegrass, Italian plant response rating [11, 18]: 50
- Plant response rating, Ryegrass, Italian [11, 19]: 0
- Plant response rating, Ryegrass, Italian [11, 20]: 0
- Ryegrass, Italian plant response rating [11, 21]: 10
- Plant response rating, Bermudagrass [12, 14]: 100
- Plant response rating, Bermudagrass [12, 15]: 85
- Plant response rating, Bermudagrass [12, 16]: 95
- Plant response rating, Bermudagrass ([12]; Postemergence, 125 g ai/ha, scale 0 to 100 (0 no effect, 100 complete control), 13 to 15 days): 100
- Bermudagrass plant response rating [12, 18]: 100
- Plant response rating, Bermudagrass [12, 19]: 95
- Plant response rating, Bermudagrass [12, 20]: 100
- Bermudagrass plant response rating [12, 21]: 100
- Plant response rating, Corn (corn (Zea mays); [14]): 5
- Plant response rating, Corn (corn (Zea mays); [15]): 30
- Plant response rating, Corn (corn (Zea mays); [16]): 50
- Plant response rating, Corn (corn (Zea mays); [17]): 85
- Corn plant response rating (corn (Zea mays); [18]): 85
- Plant response rating, Corn (corn (Zea mays); [19]): 0
- Plant response rating, Corn (corn (Zea mays); [20]): 0
- Corn plant response rating (corn (Zea mays); [21]): 0
- Plant response rating, Lambsquarters [13, 14]: 100
- Plant response rating, Lambsquarters [13, 15]: 90
- Plant response rating, Lambsquarters [13, 16]: 90
- Plant response rating, Lambsquarters [13, 17]: 90
- Lambsquarters plant response rating [13, 18]: 100
- Plant response rating, Lambsquarters [13, 19]: 98
- Plant response rating, Lambsquarters [13, 20]: 100
- Lambsquarters plant response rating [13, 21]: 100
